Measured values published in US20200207829A1, “CHIMERIC RECEPTORS” (Oxford University Innovation Limited, priority 2017, published 2020).

Molecular target: T1, dCas9(N/C)-synLPAR1 (Homo sapiens, UniProt Q92633)
T1 construct: TEV cleavage site ENLYFQL (TCS(Q'L)) (C); P2A + puromycin resistance protein (C, cleaved yes); TEV cleavage site ENLYFQG (TCS(Q'G)) (C); T2A + MCP-P65-HSF1 (C, cleaved yes); expressed in transfected cells; host or cells: HTLA cells (HEK-293 stably expressing beta-arrestin2-TEV fusion)
Test: LPA dose-response of dCas9(N/C)-synLPAR1 (EYFP activation score, HTLA cells)
Format: cell-based
Details: sgEYFP, read-out: EC50 of LPA dose-dependent activation
Description: Transfection mixtures were vortexed for 10 seconds and incubated at room temperature for 20-30 minutes. Full media was removed from cells and replaced with experiment-specific transfection media prior to adding the DNA:PEI transfection mix as follows. For dCas9(N/C)-synBDKBR2 experiments, HTLA cells were transfected in DMEM+2% (v/v) FBS supplemented with bradykinin at indicated concentrations. The bradykinin transfection media was replaced after 20 hours with HTLA full media also supplemented with bradykinin, and incubated for an additional 24 hours. […]
For all EYFP reporter experiments, media was removed 44 or 48 hours post-transfection and cells were washed with PBS (1× phosphate buffer saline), trypsinized (0.05% trypsin-EDTA, Cat. #25300062, Gibco), and kept in 1×PBS on ice. […] 100,000 total events were recorded for each condition. Data was analysed and compensated using the FlowJo package (FLOWJO LLC). To calculate an EYFP activation score which integrates both reporter fluorescence intensity and % of activated cells the following formula was used as previously described (Xie et al., 2011). […]
The numerator (% EYFP^+ve×EYFP^mean) provides a weighted mean fluorescence accounting both for the strength of reporter activation (EYFP^mean) as well as population level activation (% EYFP^+ve), which penalizes OFF-state leakage. […]

T1 sequence (Q92633 with tags, fused parts or gaps): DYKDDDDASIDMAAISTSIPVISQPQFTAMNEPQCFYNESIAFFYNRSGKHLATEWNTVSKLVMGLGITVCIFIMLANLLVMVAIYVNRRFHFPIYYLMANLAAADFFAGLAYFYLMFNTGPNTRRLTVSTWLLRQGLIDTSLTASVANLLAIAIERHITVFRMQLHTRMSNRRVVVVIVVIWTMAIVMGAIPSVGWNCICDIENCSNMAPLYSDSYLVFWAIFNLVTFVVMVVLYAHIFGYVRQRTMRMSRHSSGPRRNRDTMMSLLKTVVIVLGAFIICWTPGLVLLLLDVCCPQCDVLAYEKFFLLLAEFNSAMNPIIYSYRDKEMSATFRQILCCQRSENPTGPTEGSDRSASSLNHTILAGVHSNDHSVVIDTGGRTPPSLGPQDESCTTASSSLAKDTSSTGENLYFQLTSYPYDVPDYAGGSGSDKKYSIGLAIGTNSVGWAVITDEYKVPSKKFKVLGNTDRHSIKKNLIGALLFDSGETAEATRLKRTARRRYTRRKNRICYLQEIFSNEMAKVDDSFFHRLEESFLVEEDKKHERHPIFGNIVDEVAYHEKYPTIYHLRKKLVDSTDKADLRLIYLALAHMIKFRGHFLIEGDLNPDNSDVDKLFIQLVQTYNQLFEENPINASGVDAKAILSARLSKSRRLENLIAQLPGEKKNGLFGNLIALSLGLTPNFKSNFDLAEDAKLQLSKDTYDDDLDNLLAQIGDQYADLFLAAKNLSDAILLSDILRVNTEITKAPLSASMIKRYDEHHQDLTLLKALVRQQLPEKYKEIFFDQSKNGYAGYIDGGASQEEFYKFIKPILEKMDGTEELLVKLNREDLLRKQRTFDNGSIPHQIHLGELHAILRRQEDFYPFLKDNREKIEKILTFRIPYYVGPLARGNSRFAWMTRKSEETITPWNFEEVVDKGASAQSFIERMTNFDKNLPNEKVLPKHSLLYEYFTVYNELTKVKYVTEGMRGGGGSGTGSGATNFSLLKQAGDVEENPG
T1 sequence (Q92633 with tags, fused parts or gaps): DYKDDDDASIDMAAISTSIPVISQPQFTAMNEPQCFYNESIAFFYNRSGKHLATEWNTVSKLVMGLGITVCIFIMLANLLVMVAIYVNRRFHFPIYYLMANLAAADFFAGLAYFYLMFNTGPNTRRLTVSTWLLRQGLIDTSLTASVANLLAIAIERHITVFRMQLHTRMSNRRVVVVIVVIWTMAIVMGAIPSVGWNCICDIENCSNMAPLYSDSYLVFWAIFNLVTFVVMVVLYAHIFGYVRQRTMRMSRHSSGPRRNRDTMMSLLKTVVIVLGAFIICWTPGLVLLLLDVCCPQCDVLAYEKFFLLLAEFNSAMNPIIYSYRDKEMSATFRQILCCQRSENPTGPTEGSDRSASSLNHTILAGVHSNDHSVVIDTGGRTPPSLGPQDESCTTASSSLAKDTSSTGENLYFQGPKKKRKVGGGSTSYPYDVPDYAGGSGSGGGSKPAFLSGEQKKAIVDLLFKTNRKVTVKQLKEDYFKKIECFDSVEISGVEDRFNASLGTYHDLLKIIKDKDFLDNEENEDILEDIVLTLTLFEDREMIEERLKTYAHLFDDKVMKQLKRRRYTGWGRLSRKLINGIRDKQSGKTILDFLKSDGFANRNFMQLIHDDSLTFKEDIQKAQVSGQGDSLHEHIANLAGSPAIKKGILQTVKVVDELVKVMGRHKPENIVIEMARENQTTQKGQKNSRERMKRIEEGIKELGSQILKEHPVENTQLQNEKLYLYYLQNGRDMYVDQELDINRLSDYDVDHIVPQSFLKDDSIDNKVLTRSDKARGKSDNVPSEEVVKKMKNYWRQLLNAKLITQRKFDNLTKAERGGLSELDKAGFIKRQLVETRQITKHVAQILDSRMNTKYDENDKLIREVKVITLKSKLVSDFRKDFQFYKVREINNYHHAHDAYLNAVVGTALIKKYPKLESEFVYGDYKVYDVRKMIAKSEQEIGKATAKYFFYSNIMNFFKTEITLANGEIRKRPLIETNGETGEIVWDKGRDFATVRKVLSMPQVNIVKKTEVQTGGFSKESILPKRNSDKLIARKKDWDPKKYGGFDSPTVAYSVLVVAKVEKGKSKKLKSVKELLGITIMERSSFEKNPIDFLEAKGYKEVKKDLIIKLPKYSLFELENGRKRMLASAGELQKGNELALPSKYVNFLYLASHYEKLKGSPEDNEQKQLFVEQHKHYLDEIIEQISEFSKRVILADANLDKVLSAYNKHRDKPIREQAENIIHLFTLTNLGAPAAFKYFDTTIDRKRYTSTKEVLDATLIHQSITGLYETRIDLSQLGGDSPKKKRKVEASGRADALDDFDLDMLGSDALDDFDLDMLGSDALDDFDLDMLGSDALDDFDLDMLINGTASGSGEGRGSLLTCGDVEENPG

1-oleoyl lysophosphatidic acid [LPA]
EC50: 1820 nM
